{
  "source": "paper PMC7827406",
  "about": "“Structure–Activity Relationship (SAR) Study of Spautin-1 to Entail the Discovery of Novel NEK4 Inhibitors” (International Journal of Molecular Sciences, 2021)",
  "assay_in_all_cases": "biochemical",
  "set-up_in_all_cases": "Eurofins KinaseProfiler full panel at Km ATP, residual kinase activity (%) relative to DMSO",
  "key": {"Aurora-A(h)": {"target": "T1, Aurora-A(h) (Homo sapiens, UniProt O14965)", "T1 construct": "gene AURKA", "T1 sequence (O14965 1-403)": "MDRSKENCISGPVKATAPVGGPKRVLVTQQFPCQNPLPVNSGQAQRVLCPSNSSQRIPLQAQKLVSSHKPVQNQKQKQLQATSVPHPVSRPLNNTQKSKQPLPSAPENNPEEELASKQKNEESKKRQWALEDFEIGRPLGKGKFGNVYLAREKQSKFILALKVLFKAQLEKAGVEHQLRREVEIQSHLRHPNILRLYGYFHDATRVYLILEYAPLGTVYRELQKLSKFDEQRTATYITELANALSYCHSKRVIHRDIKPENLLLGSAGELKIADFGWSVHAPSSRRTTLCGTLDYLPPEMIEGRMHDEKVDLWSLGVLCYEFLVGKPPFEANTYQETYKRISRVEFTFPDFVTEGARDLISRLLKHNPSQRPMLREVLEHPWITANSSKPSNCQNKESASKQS", "outline": "(§1)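 Two 10 µM single-concentration screens were run: a competition-binding screen, in which DNA-tagged kinase bound to immobilized ligands was quantified by qPCR, and a radiometric activity panel at Km ATP. Each is expressed as residual kinase activity (%).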"}, "NEK7(h)": {"target": "NEK7(h) (Homo sapiens, UniProt Q8TDX7)", "sequence (Q8TDX7 whole entry)": "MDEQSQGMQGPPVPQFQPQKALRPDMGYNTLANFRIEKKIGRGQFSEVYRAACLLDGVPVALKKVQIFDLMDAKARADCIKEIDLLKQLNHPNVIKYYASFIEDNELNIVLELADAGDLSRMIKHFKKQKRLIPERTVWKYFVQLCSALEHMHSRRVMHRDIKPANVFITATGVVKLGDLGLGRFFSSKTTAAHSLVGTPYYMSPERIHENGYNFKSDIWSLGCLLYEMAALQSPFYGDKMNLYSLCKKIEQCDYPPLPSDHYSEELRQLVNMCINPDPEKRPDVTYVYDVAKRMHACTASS", "outline": "as §1"}, "HIPK1(h)": {"target": "HIPK1(h) (Homo sapiens, UniProt Q86Z02)", "sequence (Q86Z02 whole entry)": "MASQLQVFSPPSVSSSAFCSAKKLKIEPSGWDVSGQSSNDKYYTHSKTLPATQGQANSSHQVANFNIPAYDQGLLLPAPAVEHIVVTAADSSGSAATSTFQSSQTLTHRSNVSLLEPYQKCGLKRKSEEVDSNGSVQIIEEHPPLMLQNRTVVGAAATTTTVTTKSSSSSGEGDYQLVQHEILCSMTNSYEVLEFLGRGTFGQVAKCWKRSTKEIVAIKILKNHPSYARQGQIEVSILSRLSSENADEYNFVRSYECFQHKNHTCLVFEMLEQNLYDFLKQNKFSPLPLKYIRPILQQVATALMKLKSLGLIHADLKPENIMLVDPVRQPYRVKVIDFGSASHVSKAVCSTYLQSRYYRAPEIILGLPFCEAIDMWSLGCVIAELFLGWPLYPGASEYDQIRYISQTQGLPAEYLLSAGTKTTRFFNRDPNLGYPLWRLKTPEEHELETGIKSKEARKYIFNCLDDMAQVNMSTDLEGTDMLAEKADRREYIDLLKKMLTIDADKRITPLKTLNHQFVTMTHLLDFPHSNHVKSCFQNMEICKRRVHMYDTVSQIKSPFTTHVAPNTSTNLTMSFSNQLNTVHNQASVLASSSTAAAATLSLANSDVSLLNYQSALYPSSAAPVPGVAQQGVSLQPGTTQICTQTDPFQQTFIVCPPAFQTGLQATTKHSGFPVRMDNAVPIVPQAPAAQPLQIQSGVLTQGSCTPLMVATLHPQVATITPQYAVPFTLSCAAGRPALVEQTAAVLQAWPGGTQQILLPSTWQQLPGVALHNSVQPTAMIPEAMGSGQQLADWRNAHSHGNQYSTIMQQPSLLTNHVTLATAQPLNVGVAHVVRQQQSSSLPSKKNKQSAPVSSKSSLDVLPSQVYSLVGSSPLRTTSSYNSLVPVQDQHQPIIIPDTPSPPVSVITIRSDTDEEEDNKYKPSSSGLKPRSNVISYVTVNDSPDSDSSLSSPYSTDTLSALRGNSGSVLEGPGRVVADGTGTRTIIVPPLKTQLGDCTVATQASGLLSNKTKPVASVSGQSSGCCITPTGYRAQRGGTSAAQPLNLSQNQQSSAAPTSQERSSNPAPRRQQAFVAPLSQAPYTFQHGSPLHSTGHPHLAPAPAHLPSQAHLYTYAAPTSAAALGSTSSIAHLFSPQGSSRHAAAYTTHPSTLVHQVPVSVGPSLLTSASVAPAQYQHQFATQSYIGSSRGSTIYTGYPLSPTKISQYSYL", "outline": "as §1"}, "Flt3(h)": {"target": "T2, Flt3(h) (Homo sapiens, UniProt P36888)", "T2 sequence (P36888 1-993)": "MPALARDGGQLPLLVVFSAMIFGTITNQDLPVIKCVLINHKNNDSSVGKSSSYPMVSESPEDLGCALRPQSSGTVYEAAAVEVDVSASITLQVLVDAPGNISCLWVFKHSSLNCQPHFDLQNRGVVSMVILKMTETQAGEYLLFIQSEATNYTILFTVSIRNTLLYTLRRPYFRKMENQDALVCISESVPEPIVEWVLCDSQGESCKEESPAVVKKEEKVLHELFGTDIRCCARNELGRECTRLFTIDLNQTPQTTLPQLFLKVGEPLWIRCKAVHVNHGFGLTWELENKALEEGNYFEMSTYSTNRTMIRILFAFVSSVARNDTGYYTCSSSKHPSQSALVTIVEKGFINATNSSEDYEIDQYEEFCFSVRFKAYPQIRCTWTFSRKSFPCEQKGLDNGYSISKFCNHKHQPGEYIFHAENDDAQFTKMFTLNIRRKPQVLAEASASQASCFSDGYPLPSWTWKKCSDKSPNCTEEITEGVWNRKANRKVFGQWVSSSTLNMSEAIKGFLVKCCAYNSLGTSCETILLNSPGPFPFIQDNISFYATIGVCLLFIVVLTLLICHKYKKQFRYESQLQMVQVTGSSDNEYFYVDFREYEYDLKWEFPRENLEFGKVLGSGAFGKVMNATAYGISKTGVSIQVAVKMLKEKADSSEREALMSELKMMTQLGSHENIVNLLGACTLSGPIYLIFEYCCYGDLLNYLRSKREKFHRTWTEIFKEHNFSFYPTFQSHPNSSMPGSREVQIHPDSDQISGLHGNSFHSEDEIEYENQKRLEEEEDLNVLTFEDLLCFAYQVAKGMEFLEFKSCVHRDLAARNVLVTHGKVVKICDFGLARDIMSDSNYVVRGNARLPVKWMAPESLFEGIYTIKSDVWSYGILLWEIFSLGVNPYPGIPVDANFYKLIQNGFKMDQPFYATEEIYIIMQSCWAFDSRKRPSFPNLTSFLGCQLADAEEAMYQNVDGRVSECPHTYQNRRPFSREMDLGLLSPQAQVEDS", "outline": "as §1"}, "[1]": {"settings": "read-out: Residual activity (%) 5ay"}, "[2]": {"settings": "read-out: Residual activity (%) Spautin-1 5aa"}, "[3]": {"settings": "read-out: Residual activity (%) 5at"}, "[4]": {"settings": "read-out: Residual activity (%) 5as"}},
  "note": "Where two headings read alike, the source gives them in different places.",
  "data": [
    {"smiles": "COc1ccc2ncnc(Nc3cccc(F)c3)c2c1", "note": "[5ay, N-(3-Fluorophenyl)-6-Methoxy-4-Quinazolinamine]", "values": [
      {"measurement": "remaining activity at 10 µM", "setting": "Aurora-A(h); [1]", "result": 79, "unit": "%"},
      {"measurement": "remaining activity at 10 µM", "setting": "NEK7(h); [1]", "result": 76, "unit": "%"},
      {"measurement": "remaining activity at 10 µM", "setting": "HIPK1(h); [1]", "result": 78, "unit": "%"},
      {"measurement": "remaining activity at 10 µM", "setting": "Flt3(h); [1]", "result": 70, "unit": "%"}
    ]},
    {"smiles": "Fc1ccc(CNc2ncnc3ccc(F)cc23)cc1", "note": "[5aa, 6-Fluoro-N-(4-fluorobenzyl)-4-Quinazolinamine]", "values": [
      {"measurement": "remaining activity at 10 µM", "setting": "Aurora-A(h); [2]", "result": 81, "unit": "%"},
      {"measurement": "remaining activity at 10 µM", "setting": "NEK7(h); [2]", "result": 95, "unit": "%"},
      {"measurement": "remaining activity at 10 µM", "setting": "HIPK1(h); [2]", "result": 94, "unit": "%"},
      {"measurement": "remaining activity at 10 µM", "setting": "Flt3(h); [2]", "result": 71, "unit": "%"}
    ]},
    {"smiles": "Fc1ccc2ncnc(NCCc3ccc(Cl)cc3)c2c1", "note": "[5at, N-[2-(4-Chlorophenyl)Ethyl]-6-Fluoro-4-Quinazolinamine]", "values": [
      {"measurement": "remaining activity at 10 µM", "setting": "Aurora-A(h); [3]", "result": 70, "unit": "%"},
      {"measurement": "remaining activity at 10 µM", "setting": "NEK7(h); [3]", "result": 83, "unit": "%"},
      {"measurement": "remaining activity at 10 µM", "setting": "HIPK1(h); [3]", "result": 103, "unit": "%"},
      {"measurement": "remaining activity at 10 µM", "setting": "Flt3(h); [3]", "result": 62, "unit": "%"}
    ]},
    {"smiles": "Fc1ccc(CCNc2ncnc3ccc(F)cc23)cc1", "note": "[5as, 6-Fluoro-N-[2-(4-Fluorophenyl)Ethyl]-4-Quinazolinamine]", "values": [
      {"measurement": "remaining activity at 10 µM", "setting": "Aurora-A(h); [4]", "result": 87, "unit": "%"},
      {"measurement": "remaining activity at 10 µM", "setting": "NEK7(h); [4]", "result": 74, "unit": "%"},
      {"measurement": "remaining activity at 10 µM", "setting": "HIPK1(h); [4]", "result": 120, "unit": "%"},
      {"measurement": "remaining activity at 10 µM", "setting": "Flt3(h); [4]", "result": 73, "unit": "%"}
    ]}
  ]
}
